Source: article PMC8591201, “Anti-Tumor Activity of AZD4547 Against NTRK1 Fusion Positive Cancer Cells Through Inhibition of NTRKs” (Frontiers in Oncology, 2021)

Key:
Assay in all cases: cells
Design in all cases: Anti-proliferation, 10-point dose response, CellTiter-Glo luminescence (MTT stated for KM12(Luc)), GI50 fitted in Prism
[1] = tested on: AGS; conditions: Homo sapiens, AGS, 72 h, read-out: GI50 (µM) a
Description: (§1) To obtain the GI50 value of a substance, cell viability was measured using MTT (G4000, Promega, USA) for KM12(Luc) cell and Cell titer glo (G7572, Promega, USA) for other cell lines. For adherent cells, cells were seeded at 5,000 cells/well in a 96-well plate and treated with a substance one day after cell seeding. For suspension cells, 10,000 cells/well were seeded and the substance was treated after 4 h stabilization of cells. The substance was treated at 10 points of 1:3 serial dilution (0–100 µmol/L) for 72 h. For MTT assay, 15 µL dye solution was added to each well and incubated 4 h at 37°C. 100 µL of solubilization solution was added and followed 1 hr incubation. Absorbance at 570 nm of each well was recorded using EnVision microplate reader (Perkin Elmer). For Cell titer glo assay, Cell titer glo reagent was treated in each well and measured the luminescence by EnVision microplate reader (Perkin Elmer). Viable cells in each well were normalized by using 0.5% DMSO-treated wells (100%). The inhibitor dose−response curve was fitted and GI50 values were calculated using Prism 7.0 software (GraphPad). All assays were performed in duplicate and the standard deviation (SD) was determined from two independent experiments. KM12(Luc) was purchased from the JCRB cell bank. KM12 (Luc) was used within 6 months after purchase and the DNA profiles were confirmed using a short tandem repeat (STR) analysis by the Korean Cell Line Bank. KM12(Luc) cells were maintained in DMEM supplemented with 10% FBS and antibiotics. Parental Ba/F3 cells were purchased from DSMZ and were grown in RPMI1640 supplemented with 10% FBS and antibiotics in the presence of IL3, Transformed Ba/F3 cell lines were grown in the same media without IL3. Cells used in this study were negative for mycoplasma contamination. AN3-CA, HEC1A, U138, 8505C, MKN28, MKN45, A172, A375, Capan-1 HeLa, HEP3B, MCF-7 and MIA-paca-2 cells were maintained in DMEM (Welgene, Korea) supplemented with 10% FBS and antibiotics (Welgene, Korea). Otherwise, all cells were maintained in RPMI (Welgene, Korea) supplemented with 10% FBS and antibiotics (Welgene, Korea). To identify AZD4547 sensitive cell lines other than FGFR-mutant driven cancer cells, GI50 values were determined for AZD4547 against 64 different cancer cell lines, including AN3-CA used as a positive control ( Figure 1A and Table S1 ). […] Also, inhibitory activity of AZD4547 against DDR1 or FLT3 allows suppression of proliferation of U-2-OS and MV4-11 ([43]). Therefore, our attention focused on the inhibitory activity of AZD4547 against KM12(Luc) cell lines which have the TPM3-NTRK1 fusion gene. To exclude the possibility that the anti-proliferation activity of AZD4547 against KM12(Luc) is a common characteristic of FGFR inhibitors, we determined if BGJ398, a representative FGFR inhibitor, is also capable of suppressing proliferation of KM12(Luc) cells ( Figure 1B ).

[2] = tested on: GIST-T1; conditions: Homo sapiens, GISTT1, 72 h, read-out: GI50 (µM) a
Description: as §1

[3] = tested on: HEC1A; conditions: Homo sapiens, HEC-1-A, 72 h, read-out: GI50 (µM) a
Description: as §1

[4] = tested on: HT-29; conditions: Homo sapiens, HT-29, 72 h, read-out: GI50 (µM) a
Description: as §1

[5] = tested on: K-562; conditions: Homo sapiens, K562, 72 h, read-out: GI50 (µM) a
Description: as §1

[6] = tested on: KM12-Luc; conditions: KM12-Luc, 72 h, read-out: GI50 (µM) a
Description: as §1

[7] = tested on: MDA-MB-468; conditions: Homo sapiens, MDA-MB-468, 72 h, read-out: GI50 (µM) a
Description: as §1

[8] = tested on: MOLT-4; conditions: Homo sapiens, MOLT-4, 72 h, read-out: GI50 (µM) a
Description: as §1

[9] = tested on: NCI-H2009; conditions: Homo sapiens, NCI-H2009, 72 h, read-out: GI50 (µM) a
Description: as §1

[10] = tested on: NCI-H23; conditions: Homo sapiens, NCI-H23, 72 h, read-out: GI50 (µM) a
Description: as §1

[11] = tested on: OCI-AML3; conditions: Homo sapiens, OCI-AML-3, 72 h, read-out: GI50 (µM) a
Description: as §1

[12] = tested on: T98G; conditions: Homo sapiens, T98G, 72 h, read-out: GI50 (µM) a
Description: as §1

SMILES: COc1cc(CCc2cc(NC(=O)c3ccc(N4C[C@@H](C)N[C@@H](C)C4)cc3)n[nH]2)cc(OC)c1 [AZD4547]
- GI50 [1]: 58.1 µM
- GI50 [2]: 1.09 µM
- GI50 [3]: 35.6 µM
- GI50 [4]: 9.63 µM
- GI50 [5]: 17.1 µM
- GI50 [6]: 0.11 µM
- GI50 [7]: 11.5 µM
- GI50 [8]: 6.59 µM
- GI50 [9]: 50 µM
- GI50 [10]: 10.8 µM
- GI50 [11]: 6.75 µM
- GI50 [12]: 5.21 µM
